molecular target: T1, full length human recombinant glucocorticoid receptor (Homo sapiens, UniProt P04150); test: Glucocorticoid Receptor Binding Assay (fluorescence polarization competitor assay, Fluormone GS Far Red tracer)
T1 construct: partially purified full length human recombinant glucocorticoid receptor; purchased Panvera/Invitrogen PV4302
T1 sequence (P04150 1-777): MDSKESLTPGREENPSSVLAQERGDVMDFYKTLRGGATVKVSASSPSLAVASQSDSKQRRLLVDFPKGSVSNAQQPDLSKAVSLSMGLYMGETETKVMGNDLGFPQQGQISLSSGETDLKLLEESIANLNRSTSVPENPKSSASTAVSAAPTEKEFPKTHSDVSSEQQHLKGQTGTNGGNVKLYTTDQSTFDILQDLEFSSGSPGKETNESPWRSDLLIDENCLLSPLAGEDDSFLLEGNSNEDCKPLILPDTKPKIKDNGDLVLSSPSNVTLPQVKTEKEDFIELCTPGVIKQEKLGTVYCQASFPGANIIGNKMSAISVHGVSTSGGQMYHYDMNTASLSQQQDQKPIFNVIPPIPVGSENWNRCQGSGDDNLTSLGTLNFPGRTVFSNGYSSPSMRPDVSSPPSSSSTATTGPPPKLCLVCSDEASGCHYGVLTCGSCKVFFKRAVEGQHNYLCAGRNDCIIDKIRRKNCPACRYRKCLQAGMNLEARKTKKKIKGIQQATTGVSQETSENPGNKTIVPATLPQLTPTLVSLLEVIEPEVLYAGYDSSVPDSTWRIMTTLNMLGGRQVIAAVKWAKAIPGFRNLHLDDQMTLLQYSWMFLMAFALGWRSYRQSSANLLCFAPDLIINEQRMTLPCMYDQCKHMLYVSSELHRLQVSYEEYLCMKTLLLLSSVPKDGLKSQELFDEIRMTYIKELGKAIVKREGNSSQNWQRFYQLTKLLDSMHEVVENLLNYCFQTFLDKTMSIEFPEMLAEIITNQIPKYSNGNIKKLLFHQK
Procedure: Glucocorticoid Receptor Binding Assay
The ability of the substances to bind to the glucocorticoid receptor was determined with the help of a commercial Glucocorticoid Receptor Competitor Assay far red kit provided by Panvera/Invitrogen (PV4302). This kit is used as provided by the supplier. It contains some partially purified full length human recombinant glucocorticoid receptor, a coactivator related GR stabilizing peptide, a tight-binding fluorescent GR ligand Fluormone™ GS Far Red as labeled tracer and a screening buffer. All reagents are prepared and the assay is run according to the recommendations of the kit manufacturer.
Briefly, the GR stabilizing peptide and the human recombinant glucocorticoid receptor are both diluted with the screening buffer (pH 7.4) and are gently mixed (no vortexing) just before the assay and kept on ice until use. The fluorescent-labeled ligand is also diluted with the screening buffer just before the assay and kept on ice until use. The substances to test are pre-diluted in pure DMSO then some water is added to get an intermediate 4.2% DMSO stock solution. Ten microliter of the intermediate stock solution is gently mixed with 5 μl of diluted fluorescent-labeled ligand and 5 μl of diluted human recombinant glucocorticoid receptor in a 384-well plate (low volume, ultraclear, glass plate from Greiner ref 788896). The plate is centrifuged, sealed and incubated for 3 hours at 22° C. in the dark. The polarized fluorescence is measured with a Zeiss-HTS reader or any equivalent equipment (610-660 nm).
All compounds were tested to determine IC50 in a serial dilution experiment. The concentration at which 50% inhibition of the fluorescent GR ligand Fluormone™ GS Far Red is obtained (the IC50) is determined after fitting with a sigmoidal dose-response model of a plot of the logarithm of the concentration versus percent inhibition measured for the different concentrations. Ki's were calculated from IC50 based on Cheng-Prusoff equation (Cheng, Y, Prusoff, W H (1973) Biochem Pharmacol 22, 3099-3108): Ki=IC50/[1+D/Kd] wherein D is the concentration of the fluorescent ligand and Kd is the binding constant for the fluorescent ligand binding to the receptor under the conditions used in the competition experiment.

SMILES	Ki [nM]
CC(c1ccc(N(c2ccc(C(=O)O)cn2)c2ccc(C(=O)O)cn2)cc1Cl)C(O)(c1ccnc(Cl)c1)C(F)(F)F (centres unmarked) [Example 78, 6,6′-(3-Chloro-4-(3-(2-chloropyridin-4-yl)-4,4,4-trifluoro-3-hydroxybutan-2-yl)phenylazanediyl)dinicotinic acid]	76.7
CCOC(=O)c1ccc(COc2ccc([C@@H](C)[C@@](O)(c3cnc(C)cn3)C(F)(F)F)c(Cl)c2)cc1 (stereo in doubt) [Example 7, 4-{3-Chloro-4-[(1R,2R)-3,3,3-trifluoro-2-hydroxy-1-methyl-2-(5-methyl-pyrazin-2-yl)-propyl]-phenoxymethyl}-benzoic acid ethyl ester]	38.1
C[C@H](c1ccc(C(=O)NCc2ccc(C(=O)O)cc2)cc1Cl)[C@@](O)(c1ccnc(Cl)c1)C(F)(F)F (stereo in doubt) [Example 37, 4-({3-Chloro-4-[2-(2-chloro-pyridin-4-yl)-3,3,3-trifluoro-2-hydroxy-1-methyl-propyl]-benzoylamino}-methyl)-benzoic acid]	140
C[C@H](c1ccc(Oc2ccc(C(=O)O)c(F)c2)cc1Cl)[C@@](O)(c1ccc(=O)n(C)c1)C(F)(F)F (stereo in doubt) [Example 155, 4-{3-Chloro-4-[3,3,3-trifluoro-2-hydroxy-1-methyl-2-(1-methyl-6-oxo-1,6-dihydro-pyridin-3-yl)-propyl]-phenoxy}-2-fluoro-benzoic acid]	46.2
Cc1cnc([C@](O)([C@H](C)c2ccc(OCc3ccc(CC(=O)O)cc3)cc2Cl)C(F)(F)F)cn1 (stereo in doubt) [Example 12, (4-{3-Chloro-4-[3,3,3-trifluoro-2-hydroxy-1-methyl-2-(5-methyl-pyrazin-2-yl)-propyl]-phenoxymethyl}-phenyl)-acetic acid]	33.5
C[C@H](c1ccc(Oc2cc(C(F)(F)F)c(C(=O)O)cn2)cc1Cl)[C@@](O)(c1ccc(=O)n(C)c1)C(F)(F)F (stereo in doubt) [Example 164, 6-{3-Chloro-4-[3,3,3-trifluoro-2-hydroxy-1-methyl-2-(1-methyl-6-oxo-1,6-dihydro-pyridin-3-yl)-propyl]-phenoxy}-4-trifluoromethyl-nicotinic acid]	40.2
COC(=O)c1ccc(OCCOc2ccc(C(C)C(O)(c3cnc(C)cn3)C(F)(F)F)c(Cl)c2)cc1 (centres unmarked) [Example 9, 4-(2-{3-Chloro-4-[3,3,3-trifluoro-2-hydroxy-1-methyl-2-(5-methyl-pyrazin-2-yl)-propyl]-phenoxy}-ethoxy)-benzoic acid methyl ester]	119
CCOC(=O)c1noc(-c2ccc([C@@H](C)[C@@](O)(c3ccnc(Cl)c3)C(F)(F)F)c(Cl)c2)n1 (relative stereo) [Example 47, 5-{3-Chloro-4-[2-(2-chloro-pyridin-4-yl)-3,3,3-trifluoro-2-hydroxy-1-methyl-propyl]-phenyl}-[1,2,4]oxadiazole-3-carboxylic acid ethyl ester]	47.1
CCOC(=O)c1cc(-c2ccc([C@H](C)[C@](O)(c3ccc(OC)nc3)C(F)(F)F)c(Cl)c2)ccc1Cl (stereo in doubt) [Example 180, 4,3′-Dichloro-4′-[3,3,3-trifluoro-2-hydroxy-2-(6-methoxy-pyridin-3-yl)-1-methyl-propyl]-biphenyl-3-carboxylic acid ethyl ester]	38.4
COC(=O)c1cnc(Oc2ccc([C@@H](C)[C@@](O)(c3ccc(=O)n(C)c3)C(F)(F)F)c(Cl)c2)cc1C(F)(F)F (relative stereo) [Example 163, 6-{3-Chloro-4-[3,3,3-trifluoro-2-hydroxy-1-methyl-2-(1-methyl-6-oxo-1,6-dihydro-pyridin-3-yl)-propyl]-phenoxy}-4-trifluoromethyl-nicotinic acid methyl ester]	23.8
C[C@H](c1ccc(-c2ccc(F)c(C(=O)O)c2)cc1Cl)[C@@](O)(c1ccc(=O)n(C)c1)C(F)(F)F (relative stereo) [Example 165, 3′-Chloro-4-fluoro-4′-[3,3,3-trifluoro-2-hydroxy-1-methyl-2-(1-methyl-6-oxo-1,6-dihydro-pyridin-3-yl)-propyl]-biphenyl-3-carboxylic acid]	28.3

The next compounds have a lower Ki than those just listed; values first:

Ki [nM]	SMILES
14.3	C[C@H](c1ccc(Oc2ncc(C(=O)O)cc2Cl)cc1Cl)[C@@](O)(c1ccc2nccnc2c1)C(F)(F)F (relative stereo) [Example 227, 5-Chloro-6-[3-chloro-4-(3,3,3-trifluoro-2-hydroxy-1-methyl-2-quinoxalin-6-yl-propyl)-phenoxy]-nicotinic acid]
13.3	COC(=O)Cc1ccc(COc2ccc([C@@H](C)[C@@](O)(c3ccnc(Cl)c3)C(F)(F)F)c(Cl)c2)cc1 (relative stereo) [Example 23, (4-{3-Chloro-4-[2-(2-chloro-pyridin-4-yl)-3,3,3-trifluoro-2-hydroxy-1-methyl-propyl]-phenoxymethyl}-phenyl)-acetic acid methyl ester]
11.2	Cc1cc([C@](O)([C@H](C)c2ccc(-c3ccc(C(=O)O)c(F)c3)cc2Cl)C(F)(F)F)sc1C#N (relative stereo) [Example 229, 3′-Chloro-4′-[2-(5-cyano-4-methyl-thiophen-2-yl)-3,3,3-trifluoro-2-hydroxy-1-methyl-propyl]-3-fluoro-biphenyl-4-carboxylic acid]
7.5	CCOC(=O)c1cc(-c2ccc([C@H](C)[C@](O)(c3ccc(=O)n(CC)c3)C(F)(F)F)c(Cl)c2)ccc1F (relative stereo) [Example 183, 3′-Chloro-4′-[2-(1-ethyl-6-oxo-1,6-dihydro-pyridin-3-yl)-3,3,3-trifluoro-2-hydroxy-1-methyl-propyl]-4-fluoro-biphenyl-3-carboxylic acid ethyl ester]
7.1	C[C@H](c1ccc(-c2ccc(C(=O)O)c(F)c2)cc1Cl)[C@@](O)(c1cnc2ccccc2c1)C(F)(F)F (stereo in doubt) [Example 225, 3′-Chloro-3-fluoro-4′-(3,3,3-trifluoro-2-hydroxy-1-methyl-2-quinolin-3-yl-propyl)-biphenyl-4-carboxylic acid]
5.5	COC(=O)c1ccc(Oc2ccc(Cl)c([C@H](C)[C@](O)(c3ccc(=O)n(C)c3)C(F)(F)F)c2)cc1Cl (relative stereo) [Example 189, 2-Chloro-4-{4-chloro-3-[3,3,3-trifluoro-2-hydroxy-1-methyl-2-(1-methyl-6-oxo-1,6-dihydro-pyridin-3-yl)-propyl]-phenoxy}-benzoic acid methyl ester]
1.8	Cc1cc([C@](O)([C@H](C)c2ccc(Oc3ccc(C(=O)O)c(Cl)c3)cc2Cl)C(F)(F)F)sc1C#N [Example 235, 2-Chloro-4-{3-chloro-4-[2-(5-cyano-4-methyl-thiophen-2-yl)-3,3,3-trifluoro-2-hydroxy-1-methyl-propyl]-phenoxy}-benzoic acid]
0.5	Cc1cc([C@@](O)([C@@H](C)c2ccc(Oc3ccc(C(=O)O)cn3)cc2Cl)C(F)(F)F)cn(C)c1=O [Example 246, 6-{3-Chloro-4-[(1S,2S)-2-(1,5-dimethyl-6-oxo-1,6-dihydro-pyridin-3-yl)-3,3,3-trifluoro-2-hydroxy-1-methyl-propyl]-phenoxy}-nicotinic acid]
0.4	Cc1cc([C@](O)([C@H](C)c2ccc(Oc3ccc(C(=O)O)cc3Cl)cc2Cl)C(F)(F)F)cn(C)c1=O [Example 245, 3-Chloro-4-{3-chloro-4-[(1R,2R)-2-(1,5-dimethyl-6-oxo-1,6-dihydro-pyridin-3-yl)-3,3,3-trifluoro-2-hydroxy-1-methyl-propyl]-phenoxy}-benzoic acid]
